Data from US10253004B2, “Indanylaminopyrazinylcyclopropanecarboxylic acids, pharmaceutical compositions and uses thereof” (Boehringer Ingelheim International GmbH, priority 2017, dated 2019).

System: not listed separately
Test: Chemical stability (degradation kinetics) in acidic aqueous media, HPLC recovery
Assay type: physicochemical
Conditions: pH ca. 1.2, 37° C., acetonitrile/0.1 M aqueous HCl (2:3)
Method: Degradation kinetics is used to simulate chemical stability of compounds in the acidic part of the gastro intestinal tract. […] Their application as medical drugs to treat human diseases is therefore less restricted and troublesome.
The chemical stability of the compounds of the invention at pH value of ca. 1.2 is determined as follows:
Compound is dissolved in an HPLC vial either in a mixture of acetonitrile/0.1 M aqueous HCl (2:3; pH ca. 1.2) or in a mixture of acetonitrile/Mcllvaine buffer pH 7.4 (2:3) to get a concentration of approximately 0.25 mg/ml. The vial was then transferred into an HPLC autosampler system and maintained at a temperature of 37° C. A first sample is taken and injected immediately into a standard HPLC system with a UV DAD detector. Further samples are injected after 2, 4, 6, 8 and 10 hours. Amount of degraded compound is measured by determining the recovery rate of compound [%] for each injection using an HPLC standard gradient method. Therefore the peak area of the main peak for the first injection (AUt0) is determined and set as 100%. Peak area of the main peak is determined also for the further injections (AUtn, n=2, 4, 6, 8, 10) and expressed as fraction of […] [%].
In the case of `Cc1cc(C(=O)NCC(C)(C)O)cc(C)c1-c1ccc(F)c2c1CC[C@H]2Oc1ccc([C@H]2C[C@@H]2C(=O)O)cc1` [Example 15 in WO 2013/178575, reference compound], the “Amount of degradation after 2 h” value is reported as 3%.

Molecular target: human GPR40 receptor (Homo sapiens (Human), UniProt O14842)
Sequence (O14842 whole entry): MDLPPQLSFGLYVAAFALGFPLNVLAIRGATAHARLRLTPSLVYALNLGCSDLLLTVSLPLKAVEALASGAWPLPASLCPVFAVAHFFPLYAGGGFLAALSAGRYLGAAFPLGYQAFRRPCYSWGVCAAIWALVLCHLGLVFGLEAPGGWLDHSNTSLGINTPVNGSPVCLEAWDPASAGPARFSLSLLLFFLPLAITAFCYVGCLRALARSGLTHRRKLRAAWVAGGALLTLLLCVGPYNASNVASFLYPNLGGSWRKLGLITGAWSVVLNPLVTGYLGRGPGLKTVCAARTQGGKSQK
Test: IP1 accumulation measurements using the IPOne assay system
Assay type: cell-based
Conditions: 1321N1 cells stably expressing human GPR40; IP1 accumulation; read-out: EC50
Method: IP1 accumulation measurements using the IPOne assay system—1321N1 cells stably expressing human GPR40 receptor (Euroscreen, Belgium) are seeded 24 h before the assay in white 384-well plates in culture medium containing 10% FCS, 1% Na-Pyruvate and 400 μg/mL G418. IP1 is assayed according to the manufacturer's description (Cisbio Bioassays, France). In brief, the assay is started by substitution of the culture medium by stimulation buffer (Hepes 10 mM, CaCl2 1 mM, MgCl2 0.5 mM, KCl 4.2 mM, NaCl 146 mM, glucose 5.5 mM and LiCl 50 mM, pH 7.4). Cells are stimulated for 1 h at 37° C., 5% CO2 by addition of the compounds that are diluted in stimulation buffer containing LiCl. Assays are stopped by adding HTRF-conjugates (IP1-d2 and Anti-IP1 cryptate Tb) and lysis buffer, provided by the manufacturer. After an incubation time of 1 h at room temperature plates are measured using an EnVision™, Perkin Elmer. The obtained fluorescence ratios at 665/615 […] are then used to calculate the pEC50 values using Assay Explorer 3.3 Software (Accelrys, Inc.) by interpolation using an IP1 reference curve and subsequent sigmoidal curve fitting allowing for a variable hill slope.
With `Cc1cc(OCCC(C)(C)O)cc(C)c1-c1ccc(F)c2c1CC[C@H]2Nc1cnc(C2C[C@@H]2C(=O)O)cn1` (stereo partly drawn) [Example 1, trans-2-(5-{(R)-7-Fluoro-4-[4-(3-hydroxy-3-methyl-butoxy)-2,6-dimethyl-phenyl]-indan-1-ylamino}-pyrazin-2-yl)-cyclopropanecarboxylic acid] the EC50 was 7 nM. Compound `Cc1cc(OCCC(C)(C)O)cc(C)c1-c1ccc(F)c2c1CC[C@H]2Nc1cnc([C@@H]2C[C@H]2C(=O)O)cn1` [Example 3, (1R,2R)-2-(5-{(R)-7-Fluoro-4-[4-(3-hydroxy-3-methyl-butoxy)-2,6-dimethyl-phenyl]-indan-1-ylamino}-pyrazin-2-yl)-cyclopropanecarboxylic acid] has an EC50 of 164 nM. For `Cc1cc(OCCCS(C)(=O)=O)cc(C)c1-c1ccc(F)c2c1CC[C@H]2Nc1cnc([C@@H]2C[C@H]2C(=O)O)cn1` [Example 5, (1R,2R)-2-(5-{(R)-7-Fluoro-4-[4-(3-methanesulfonyl-propoxy)-2,6-dimethyl-phenyl]-indan-1-ylamino}-pyrazin-2-yl)-cyclopropanecarboxylic acid], the EC50 was 519 nM. Work on `Cc1cc(-c2nnn(C)n2)cc(C)c1-c1cccc2c1CC[C@H]2Nc1cnc([C@H]2C[C@@H]2C(=O)O)cn1` [Example 6, (1S,2S)-2-(5-{(R)-4-[2,6-Dimethyl-4-(2-methyl-2H-tetrazol-5-yl)-phenyl]-indan-1-ylamino}-pyrazin-2-yl)-cyclopropanecarboxylic acid] yielded an EC50 of 3 nM. For `COc1ccc(-c2cccc3c2CC[C@H]3Nc2cnc([C@H]3C[C@@H]3C(=O)O)cn2)cc1F` [Example 8, (1S,2S)-2-{5-[(R)-4-(3-Fluoro-4-methoxy-phenyl)-indan-1-ylamino]-pyrazin-2-yl}-cyclopropanecarboxylic acid], the EC50 was 163 nM. Compound `COc1cnc(-c2ccc(-c3cccc4c3CC[C@H]4Nc3cnc([C@H]4C[C@@H]4C(=O)O)cn3)cc2)cn1` [Example 9, (1S,2S)-2-(5-{(R)-4-[4-(5-Methoxy-pyrazin-2-yl)-phenyl]-indan-1-ylamino}-pyrazin-2-yl)-cyclopropanecarboxylic acid] has an EC50 of 35 nM. `Cc1cc(C(N)=O)cc(C)c1-c1ccc(F)c2c1CC[C@H]2Nc1cnc([C@H]2C[C@@H]2C(=O)O)cn1` [Example 10] showed an EC50 of 24 nM. In the case of `Cc1cc(-c2cc(=O)n(C)cn2)cc(C)c1-c1ccc(F)c2c1CC[C@H]2Nc1cnc([C@H]2C[C@@H]2C(=O)O)cn1` [Example 11], the EC50 is reported as 6 nM. In the case of `Cc1cc(OCC2(O)CCS(=O)(=O)CC2)cc(C)c1-c1ccc(F)c2c1CC[C@H]2Nc1cnc([C@H]2C[C@@H]2C(=O)O)cn1` [Example 12], the EC50 is reported as 14 nM. `Cc1cc(OCC2CCOCC2)cc(C)c1-c1ccc(F)c2c1CC[C@H]2Nc1cnc([C@H]2C[C@@H]2C(=O)O)cn1` [Example 13] showed an EC50 of 4 nM. Compound `Cc1cc(C(=O)O)cc(C)c1-c1ccc(F)c2c1CC[C@H]2Nc1cnc([C@H]2C[C@@H]2C(=O)O)cn1` [Example 14] has an EC50 of 355 nM. In the case of `Cc1cccc(C)c1-c1ccc(F)c2c1CC[C@H]2Nc1cnc([C@H]2C[C@@H]2C(=O)O)cn1` [Example 15], the EC50 is reported as 7 nM. With `O=C(O)[C@H]1C[C@@H]1c1cnc(N[C@@H]2CCc3c(-c4c(F)cccc4F)ccc(F)c32)cn1` [Example 16] the EC50 was 77 nM. `O=C(O)[C@H]1C[C@@H]1c1cnc(N[C@@H]2CCc3c(-c4ccccc4C(F)(F)F)ccc(F)c32)cn1` [Example 17] showed an EC50 of 23 nM. For `Nc1cc(F)c(-c2ccc(F)c3c2CC[C@H]3Nc2cnc([C@H]3C[C@@H]3C(=O)O)cn2)c(F)c1` [Example 18], the EC50 was 150 nM. `O=C(O)[C@H]1C[C@@H]1c1cnc(N[C@@H]2CCc3c(-c4c(F)cc(OC5CC5)cc4F)ccc(F)c32)cn1` [Example 19] showed an EC50 of 56 nM. With `Cc1cc(C(=O)N(C)C)cc(C)c1-c1ccc(F)c2c1CC[C@H]2Nc1cnc([C@H]2C[C@@H]2C(=O)O)cn1` [Example 20] the EC50 was 75 nM. For `Cc1ccc(Cl)c(-c2ccc(F)c3c2CC[C@H]3Nc2cnc([C@H]3C[C@@H]3C(=O)O)cn2)c1Cl` [Example 21], the EC50 was 4 nM. In the case of `COc1cc(C)c(-c2ccc(F)c3c2CC[C@H]3Nc2cnc([C@H]3C[C@@H]3C(=O)O)cn2)c(C)c1` [Example 22], the EC50 is reported as 8 nM. Compound `O=C(O)[C@H]1C[C@@H]1c1cnc(N[C@@H]2CCc3c(-c4ccc(-c5cnco5)cc4)ccc(F)c32)cn1` [Example 23] has an EC50 of 144 nM. For `COc1cc(OC)c(-c2ccc(F)c3c2CC[C@H]3Nc2cnc([C@H]3C[C@@H]3C(=O)O)cn2)c(OC)c1` [Example 24], the EC50 was 128 nM. Compound `O=C(O)[C@H]1C[C@@H]1c1cnc(N[C@@H]2CCc3c(-c4c(Cl)cccc4Cl)ccc(F)c32)cn1` [Example 25] has an EC50 of 7 nM. In the case of `N#CC1(c2ccccc2-c2ccc(F)c3c2CC[C@H]3Nc2cnc([C@H]3C[C@@H]3C(=O)O)cn2)CC1` [Example 26], the EC50 is reported as 367 nM. `Cc1cc(O[C@@H]2CCOC2)cc(C)c1-c1ccc(F)c2c1CC[C@H]2Nc1cnc([C@H]2C[C@@H]2C(=O)O)cn1` [Example 27] gave an EC50 of 13 nM. In the case of `COc1cc(OC)c(Cl)c(-c2ccc(F)c3c2CC[C@H]3Nc2cnc([C@H]3C[C@@H]3C(=O)O)cn2)c1Cl` [Example 29], the EC50 is reported as 5 nM. Compound `Cc1cc(CO)cc(C)c1-c1ccc(F)c2c1CC[C@H]2Nc1cnc([C@H]2C[C@@H]2C(=O)O)cn1` [Example 30] has an EC50 of 20 nM. In the case of `Cc1cc(OC2CCOCC2)cc(C)c1-c1ccc(F)c2c1CC[C@H]2Nc1cnc([C@H]2C[C@@H]2C(=O)O)cn1` [Example 31], the EC50 is reported as 9 nM. Compound `Cc1cc(OCC2(C)COC2)cc(C)c1-c1ccc(F)c2c1CC[C@H]2Nc1cnc([C@H]2C[C@@H]2C(=O)O)cn1` [Example 32] has an EC50 of 7 nM. With `Cc1cc(-c2ccc(=O)n(C)c2)cc(C)c1-c1ccc(F)c2c1CC[C@H]2Nc1cnc([C@H]2C[C@@H]2C(=O)O)cn1` [Example 33] the EC50 was 6 nM. `Cc1cc(-c2ccnn2C)cc(C)c1-c1ccc(F)c2c1CC[C@H]2Nc1cnc([C@H]2C[C@@H]2C(=O)O)cn1` [Example 36] gave an EC50 of 12 nM. In the case of `COc1cc(OC)c(F)c(-c2ccc(F)c3c2CC[C@H]3Nc2cnc([C@H]3C[C@@H]3C(=O)O)cn2)c1F` [Example 37], the EC50 is reported as 81 nM. Work on `Cc1cnc(-c2cc(C)c(-c3ccc(F)c4c3CC[C@H]4Nc3cnc([C@H]4C[C@@H]4C(=O)O)cn3)c(C)c2)nc1` [Example 38] yielded an EC50 of 4 nM. In the case of `Cc1cc(-c2nnnn2CC(C)(C)O)cc(C)c1-c1ccc(F)c2c1CC[C@H]2Nc1cnc([C@H]2C[C@@H]2C(=O)O)cn1` [Example 39], the EC50 is reported as 3 nM. Work on `CC(C)c1ccccc1-c1ccc(F)c2c1CC[C@H]2Nc1cnc([C@H]2C[C@@H]2C(=O)O)cn1` [Example 40] yielded an EC50 of 16 nM. `Cc1cc(OCC2(O)CCOCC2)cc(C)c1-c1ccc(F)c2c1CC[C@H]2Nc1cnc([C@H]2C[C@@H]2C(=O)O)cn1` [Example 41] showed an EC50 of 11 nM. `COc1cc(-c2cc(C)c(-c3ccc(F)c4c3CC[C@H]4Nc3cnc([C@H]4C[C@@H]4C(=O)O)cn3)c(C)c2)ccn1` [Example 42] gave an EC50 of 5 nM. With `Cc1cc(OCC2CCOC2)cc(C)c1-c1ccc(F)c2c1CC[C@H]2Nc1cnc([C@H]2C[C@@H]2C(=O)O)cn1` (stereo partly shown) [Example 43] the EC50 was 18 nM. In the case of `COc1cc(F)c(-c2ccc(F)c3c2CC[C@H]3Nc2cnc([C@H]3C[C@@H]3C(=O)O)cn2)c(F)c1` [Example 44], the EC50 is reported as 90 nM. `CNC(=O)c1cc(C)c(-c2ccc(F)c3c2CC[C@H]3Nc2cnc([C@H]3C[C@@H]3C(=O)O)cn2)c(C)c1` [Example 45] gave an EC50 of 23 nM. In the case of `Cc1cc(OCC(=O)O)cc(C)c1-c1ccc(F)c2c1CC[C@H]2Nc1cnc([C@H]2C[C@@H]2C(=O)O)cn1` [Example 48], the EC50 is reported as 839 nM. `CCc1cccc(CC)c1-c1ccc(F)c2c1CC[C@H]2Nc1cnc([C@H]2C[C@@H]2C(=O)O)cn1` [Example 49] gave an EC50 of 4 nM. In the case of `O=C(O)[C@H]1C[C@@H]1c1cnc(N[C@@H]2CCc3c(-c4c(F)cc(F)cc4F)ccc(F)c32)cn1` [Example 50], the EC50 is reported as 74 nM. `Cc1cc(C#N)cc(C)c1-c1ccc(F)c2c1CC[C@H]2Nc1cnc([C@H]2C[C@@H]2C(=O)O)cn1` [Example 51] gave an EC50 of 9 nM. For `Cc1cc(OCC2(O)CCSCC2)cc(C)c1-c1ccc(F)c2c1CC[C@H]2Nc1cnc([C@H]2C[C@@H]2C(=O)O)cn1` [Example 52], the EC50 was 10 nM. For `Cc1cc(-c2cnccn2)cc(C)c1-c1ccc(F)c2c1CC[C@H]2Nc1cnc([C@H]2C[C@@H]2C(=O)O)cn1` [Example 54], the EC50 was 4 nM.
